Experimental findings from patent publication US6458549B2, “Methods of diagnosing renal salt wasting syndrome and Alzheimer's disease and methods of treating the same” (Winthrop-University Hospital, priority 1998, dated 2002) are described below.

The subject of experiment [1] is human kidney proximal tubule cells. As to the kind of experiment: Apoptosis of human kidney proximal tubule cells in culture. The experiment is classed as cell-based. Here is the method: (§1) Apoptosis Assay (TUNEL): Nuclear DNA fragmentation consistent with apoptosis was determined by the method of TdT-mediated dUTP-biotin nick-end labeling (TUNEL) (Y. Gavrieli et al., J. Cell. Biol. 119:493-501, 1992). The ApopDetek cell death assay kit (Enzo, Farmingdale, N.Y.) was used utilizing terminal deoxynucleotide transferase to incorporate Bio-16-dUTP onto the 3′-OH termini in the DNA of apoptotic cells, subsequent binding with streptavidin-horseradish peroxidase, and visualization after conversion of the substrate and chromagen (hydrogen peroxide and aminoethylcarbazole) into a localized brick red precipitate. A blue counter stain was also used. Slides were then observed for morphologically irregular and condensed nuclei which contain dark red precipitate to indicate TUNEL-positive cells using a Nikon (Nikon, Inc., Melville, N.Y.) Optiphot microscope. Five to six random field totaling approximately 1,000 to 1,500 cells were counted per slide. Apoptotic index (AI), defined as the percent of cells undergoing apoptosis, is calculated by dividing the number of positive nuclei by the total number of nuclei counted multiplied by 100.

A further experiment deals with LLC-PK1 cells. The experiment can be described thus: TUNEL apoptosis assay (apoptotic index) in cultured LLC-PK1 cells. The experiment is classed as cell-based, pig. The following applies: for Apoptotic activity (in words): substance alone; for AI: 2 h. As for the experimental part: Cell Culture and Assay Protocol. LLC-PK1, a pig kidney epithelial cell line was plated at a density of 10^3 cells per well into eight-well Permanox plastic chamber slides (NUNC, Naperville, Ill.). The cells were cultured at 37° C. in 5% CO2 in humidified incubators and grown for 3 days to 70-80% confluency in DMEM-F12 that was supplemented with 10% fetal calf serum, 7.5% sodium bicarbonate, 15 mM HEPES, 200 mM L-Glutamate, 100 u penicillin and 0.1 ug/ml streptomycin (Life Technologies, Gaithersburg, Md.). The culture fluid was then removed and cells were exposed to plasma from control individuals, Alzheimer's disease patients or multi-infarct dementia patients diluted 1:5 in fresh DMEM-F12 media, supplemented as above, for 2 h at 37° C. The cells were then rinsed in PBS, and fixed in 4% formaldehyde in PBS for 10 min., permeabilized with 0.5% Triton X-100 (Sigma Chemical CO., St. Louis, Mo.) for 5 min. and washed in 4 changes of distilled water. A positive control was obtained by exposing cells to 0.6 mM H2O2 diluted in DMEM-F12 for 2 h.
as §1, with “100. […]” for “100.”
Effect of Protein Synthesis on Apoptotic Activity. LLC-PK1 cells were exposed to Alzheimer's disease and control plasma in the absence and presence of cycloheximide (0.2-200 uM) (Sigma, St. Louis, Mo.). Apoptotic index was measured in these cells by TUNEL assay.
Effect of Calcium Depletion on Factor Activity. The TUNEL assay was performed in the usual manner except for substituting DMEM-F12 with calcium-free DMEM, supplemented with dialyzed 10% fetal calf serum (Life Technologies, Grand Island, N.Y.) and 0.6 mM EGTA to chelate calcium. Dialyzed Alzheimer's disease and control plasma were then added to the calcium-free media for 2 h at 37° C. and a TUNEL assay performed.
Contribution of Known Apoptotic Inducers. To test the possibility that the apoptotic factor in Alzheimer's disease plasma was β amyloid, TNF-α or myeloma light chain, the TUNEL assay was repeated as above after a 2 h incubation at 37° C. with […] β amyloid (Peninsula Laboratories, Inc., Belmont, Calif.), 5 pM-3 nM TNF-α (Quantikine, Minneapolis, Minn.) and 3-60 ug λ myeloma light chain, kindly supplied by Dr. Vecihi Batuman, Tulane University School of Medicine, New Orleans, La. To eliminate the possibility that a protease in Alzheimer's disease plasma is responsible for the apoptotic activity, the effect of a broad spectrum protease inhibitor cocktail (Boehringer Mannheim) was studied on apoptotic index using the TUNEL assay. LCC-PK1 cells were incubated with Alzheimer's disease plasma with and without the inhibitor cocktail and assayed as detailed above. This cocktail inhibits a large spectrum of serine, cysteine, and metalloproteases as well as calpains. It consists of aprotinin, leupeptin, EDTA, and pefabloc.

Entries after “also recorded” stand apart in the source; their conditions may differ.

On to Prostaglandins E [Prostaglandin E], for which the “Effect on apoptosis (in words)” value in experiment [1] (substance alone) was “did not increase apoptosis”.
Take `CCCCC[C@H](O)C/C=C1/C(=O)C=C[C@@H]1C/C=C\CCCC(=O)O` [-Δ^12Prostaglandin J2]: the “Apoptotic activity (in words)” value in the experiment with LLC-PK1 cells is “increases the rate of apoptosis”. In addition, the “Effect on apoptosis (in words)” value in experiment [1] (addition of Δ12Prostaglandin J2 to Indomethacin) is reported as “increased apoptosis”; in experiment [1] (combination of Indomethacin, Prostaglandin D2 Synthase and Δ12Prostaglandin J2), “increased apoptosis”; in experiment [1] (substance alone), “induces apoptosis; also recorded: increased apoptosis to the same degree as prostaglandin D2 synthase”; in experiment [1] (substance alone, listed as -Δ^12prostaglandin J2) it was “induces apoptosis”.
In the case of `COc1ccc2c(c1)c(CC(=O)O)c(C)n2C(=O)c1ccc(Cl)cc1` [Indomethacin], the “Effect on apoptosis (in words)” value in experiment [1] (simultaneous addition of Indomethacin and Prostaglandin D2 Synthase) is given as “did not increase apoptosis above baseline”; in experiment [1] (substance alone), “inhibited apoptosis to baseline”.
`CCCCC[C@H](O)/C=C/[C@H]1C(=O)C[C@H](O)[C@@H]1C/C=C\CCCC(=O)O` [Prostaglandin D, prostaglandin D2]: the “Effect on apoptosis (in words)” value in experiment [1] (substance alone) is reported as “did not increase apoptosis”.
Take `CCN1C(=O)C=CC1=O` [N-Ethyl Maleimide]: the “Effect on apoptosis (in words)” value in experiment [1] (deactivation/inhibition of Prostaglandin D2 Synthase by N-Ethyl Maleimide) is on record as “inhibited apoptosis”.
In the case of `CCCCC[C@H](O)/C=C/[C@@H]1[C@@H](C/C=C\CCCC(=O)O)[C@@H]2C[C@H]1OO2` [Prostaglandin H, prostaglandin H2], the “Effect on apoptosis (in words)” value in experiment [1] (substance alone) is reported as “did not increase apoptosis”.
As to `C[C@@H]1C[C@@H]([C@H](O)CC2CC(=O)NC(=O)C2)C(=O)[C@@H](C)C1` [Cycloheximide, cycloheximide], the “Effect on apoptosis by Alzheimer's disease plasma (in words)” value in the experiment with LLC-PK1 cells (200 uM cycloheximide) was “inhibition of apoptosis”; with LLC-PK1 cells (lower concentrations of cycloheximide), “no inhibition of apoptosis”. Also, the “AI (%)” value is 7.7 ± 1.6% in the experiment on LLC-PK1 cells (cycloheximide 200 uM, cells exposed to Alzheimer's plasma); 6.3 ± 1.5% with LLC-PK1 cells (cycloheximide 200 uM, cells exposed to control plasma); 28.7 ± 4.0% with LLC-PK1 cells (cycloheximide 0.2-20 uM, cells exposed to Alzheimer's plasma); 5.0 ± 0.0% with LLC-PK1 cells (cycloheximide 0.2-20 uM, cells exposed to control plasma).
For β-amyloid, the AI in the experiment on LLC-PK1 cells (50 uM in media) was found to be 6.1±3.1%. Besides, the “Apoptotic activity (in words)” value in the experiment on LLC-PK1 cells is “No detectable apoptotic activity”.
In the experiment with LLC-PK1 cells (doses as high as 50 pM), TNF-α returned an AI of 6%.

B1: α1 microglobulin: protein co-found in the 32 Kd band from urine of a renal salt wasting patient (protein, UniProt P02760 20-203, looked up)
Alpha-1-microglobulin: GPVPTPPDNIQVQENFNISRIYGKWYNLAIGSTCPWLKKIMDRMTVSTLVLGEGATEAEISMTSTRWRKGVCEETSGAYEKTDTDGKFLYHKSKWNITMESYVVHTNYDEYAIFLTKKFSRHHGPTITAKLYGRAPQLRETLLQDFRVVAQGVGIPEDSIFTMADRGECVPGEQEPEPILIPRV
modifications: Alpha-1-microglobulin
notes: protein co-found in the 32 Kd band from urine of a renal salt wasting patient
For B1, the “Apoptotic activity (in words)” value in the experiment on LLC-PK1 cells was “no apoptotic activity”.

B2: Prostaglandin D2 Synthase: enzyme that converts prostaglandin H2 to prostaglandin D2; identified apoptotic factor (protein, UniProt P41222 23-190, looked up)
Prostaglandin-H2 D-isomerase: APEAQVSVQPNFQQDKFLGRWFSAGLASNSSWLREKKAALSMCKSVVAPATDGGLNLTSTFLRKNQCETRTMLLQPAGSLGSYSYRSPHWGSTYSVSVVETDYDQYALLYSQGSKGPGEDFRMATLYSRTQTPRAELKEKFTAFCKAQGFTEDTIVFLPQTDKCMTEQ
Consider B2, for which, in experiment [1] (substance alone), the “Effect on apoptosis (in words)” value was “increased apoptosis” and the “Increase of apoptosis above control” value is “about four times above control”.
